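Briefly, cells in 96-well plates were exposed to five compound concentrations for 48 h, and endpoints were estimated by linear interpolation. GI50: concentration for 50% inhibition of growth. TGI: total growth inhibition.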
Assays:
Assay in all cases: NCI anticancer screen, dose series, 48 h
[1] = tested on: EKVX NSCLC
[2] = tested on: HCT-15 colon
[3] = tested on: HOP-62 NSCLC
[4] = tested on: HT29 colon
[5] = tested on: SF-295 CNS
[6] = tested on: SK-OV-3 ovarian
[7] = tested on: UACC-257 melanoma
[8] = tested on: UO-31 renal
[9] = tested on: OVCAR-3 ovarian
[10] = tested on: SF-539 CNS

[N-]=[N+]=NCCCn1c2c(c3ccc([N+](=O)[O-])cc3c1=O)C(=O)c1ccccc1-2
GI50 [1]: > 100 µM
TGI [1]: > 100 µM
GI50 [2]: 75.5 µM
TGI [2]: > 100 µM
GI50 [3]: > 100 µM
TGI [3]: > 100 µM
GI50 [4]: > 100 µM
TGI [4]: > 100 µM
GI50 [5]: 4.82 µM
TGI [5]: > 100 µM
GI50 [6]: > 100 µM
TGI [6]: > 100 µM
GI50 [7]: 0.244 µM
TGI [7]: 56.8 µM
GI50 [8]: > 100 µM
TGI [8]: > 100 µM

Cc1cc(Cl)ccc1OCC(=O)Nc1nc2c(Cl)cccc2s1
GI50 [1]: > 100 µM
TGI [1]: > 100 µM
GI50 [2]: 6.49 µM
TGI [2]: > 100 µM
GI50 [3]: 19.6 µM
TGI [3]: 55.1 µM
GI50 [4]: > 100 µM
TGI [4]: > 100 µM
GI50 [9]: 28.1 µM
TGI [9]: 93.8 µM
GI50 [5]: 20.8 µM
TGI [5]: > 100 µM
GI50 [10]: 17.4 µM
TGI [10]: > 100 µM
GI50 [6]: 96.2 µM
TGI [6]: > 100 µM
GI50 [7]: > 100 µM
TGI [7]: > 100 µM
GI50 [8]: > 100 µM
TGI [8]: > 100 µM

O=c1[nH]c2ccccc2cc1-c1nc2ccc(Cl)cc2[nH]1
GI50 [1]: 2.35 µM
TGI [1]: > 100 µM
GI50 [2]: 2.91 µM
TGI [2]: > 100 µM
GI50 [3]: 6.79 µM
TGI [3]: 59.3 µM
GI50 [4]: 4.24 µM
TGI [4]: > 100 µM
GI50 [9]: 2.37 µM
TGI [9]: 7.25 µM
GI50 [5]: 9.63 µM
TGI [5]: > 100 µM
GI50 [10]: 4.13 µM
TGI [10]: 17.2 µM
GI50 [6]: 2.22 µM
TGI [6]: 8.01 µM
GI50 [7]: 13.9 µM
TGI [7]: > 100 µM
GI50 [8]: 3.31 µM
TGI [8]: > 100 µM

N#C/C(=C/c1cccc(Oc2ccccc2)c1)c1ccccc1
TGI [1]: > 100 µM
TGI [2]: > 100 µM
TGI [4]: > 100 µM
TGI [5]: > 100 µM
TGI [10]: > 100 µM
TGI [6]: > 100 µM
TGI [7]: > 100 µM
TGI [8]: > 100 µM

COc1cc(Nc2ncccc2C(=O)Nc2nc3ccc(F)cc3s2)cc(OC)c1OC
GI50 [1]: 2.7 µM
TGI [1]: > 100 µM
GI50 [2]: 4.38 µM
TGI [2]: > 100 µM
GI50 [3]: 5.78 µM
TGI [3]: > 100 µM
GI50 [4]: 5.15 µM
TGI [4]: > 100 µM
GI50 [9]: 2.77 µM
TGI [9]: 33 µM
GI50 [5]: 2.55 µM
TGI [5]: > 100 µM
GI50 [10]: 3.84 µM
TGI [10]: > 100 µM
GI50 [6]: 7.4 µM
TGI [6]: > 100 µM
GI50 [8]: 3.37 µM
TGI [8]: > 100 µM

CCC1=CCN(c2cc(C)ccn2)OC1c1ccc(OC)cc1 (stereo unspecified)
TGI [1]: > 100 µM
TGI [2]: > 100 µM
TGI [3]: > 100 µM
TGI [4]: 50.2 µM
TGI [9]: > 100 µM
TGI [5]: 70.8 µM
TGI [6]: > 100 µM
TGI [7]: 86.1 µM
TGI [8]: > 100 µM

COc1ccc([C@@]2(O)c3c(ccc(O)c3OC)[C@H]2OC)c(OC)c1
TGI [1]: > 100 µM
TGI [3]: > 100 µM
TGI [4]: > 100 µM
TGI [9]: > 100 µM
TGI [5]: > 100 µM
TGI [6]: > 100 µM
TGI [7]: > 100 µM
TGI [8]: > 100 µM

Cc1ccc(S(=O)(=O)N=Nc2c(O)[nH]c3cc(O)c(C(=O)O)cc23)cc1
TGI [1]: > 100 µM
TGI [2]: > 100 µM
TGI [3]: > 100 µM
TGI [4]: > 100 µM
TGI [9]: > 100 µM
TGI [5]: > 100 µM
TGI [6]: > 100 µM
TGI [7]: > 100 µM
TGI [8]: > 100 µM

O=C(O)CCCc1ccc2ccc3ccccc3c2c1
TGI [1]: > 100 µM
TGI [2]: > 100 µM
TGI [3]: > 100 µM
TGI [4]: > 100 µM
TGI [9]: > 100 µM
TGI [5]: > 100 µM
TGI [7]: > 100 µM
TGI [8]: > 100 µM
